Results reported in EP4324461A1, “(E)-N-CINAMOYLAMINOALKANOLES WITH MELANOGENESIS INHIBITORY ACTIVITY” (UNIWERSYTET JAGIELLONSKI, priority 2022, dated 2024).

What was measured:
[1] = test system: human reconstructed epidermis Episkin™; test: Skin permeation in reconstructed human epidermis (Episkin); format: in vitro ADME
Description: The tested substance A-111 in a macrogol formulation (2% A-111 in the PEG400+PEG800 base) was applied onto the epidermis in an amount of approximately 10 mg/cm^2 ("finite dose application") using a sterile inoculation loop. The amount applied was weighed accurately. As a control, a macrogol formulation without the test substance was applied onto the epidermis. The finished experimental plate was incubated at 32 °C. At specific time intervals, aliquots of the receptor fluid (0.5 mL) were collected for the analysis and replaced with 0.5 mL of fresh receptor fluid. After 24 h of culture, all of the receptor fluid was collected. The examined tissue was washed with cotton buds soaked in methanol. The donor and receptor compartments were washed with methanol, and the epidermis was separated from the inserts and transferred to methanol. Samples were stored at -20 °C until analysis. The content (concentration) of the tested substance A-111 in the receptor fluid and in individual compartments: on the surface of the epidermis, in the epidermis, in the receptor fluid was determined using measurements in a microplate reader at 281 nm on 96-well plates transmitting ultraviolet radiation.
In order to confirm proper bioavailability, studies of the permeation of compound A-111 from a solution in PEG400 were performed in a model of reconstructed human epidermis. […] The tested substance A-111 was applied onto the epidermis in the form of a 2% PEG400 solution in an amount of 15 µL. The finished experimental plate was incubated at 32 °C. At specific time intervals, aliquots of the receptor fluid (0.5 mL) were collected for the analysis and replaced with fresh fluid. After 24 h of culture, all of the receptor fluid was collected. The examined tissue was washed with cotton buds soaked in methanol. The donor and receptor compartments were washed with methanol, and the epidermis was separated from the inserts and transferred to methanol. The content (concentration) of the tested substance A-111 in the acceptor fluid and in individual compartments: on the surface of the epidermis, in the epidermis, in the receptor fluid was determined using measurements in a microplate reader at 281nm on 96-well plates transmitting ultraviolet radiation.
Permeation studies of the A-111 compound from a cosmetic formulation were performed in a model of reconstructed human epidermis. […] 25 µL of the formulation containing the tested compound A-111 was applied to the epidermis. […] The content (concentration) of the tested substance A-111 in the receptor fluid and in individual compartments: on the surface of the epidermis, in the epidermis, in the receptor fluid was determined using measurements in a microplate reader at 281 nm on 96-well plates transmitting ultraviolet radiation.

[2] = target: T1, tyrosinase released from B16-F10 cells (Mus musculus, UniProt P11344); test: Inhibition of tyrosinase activity released from B16-F10 cells; format: cell-based, murine; settings: α-MSH induced cells, lysate, L-DOPA 0.5 mM
T1 construct: endogenous in cells; host or cells: B16-F10 murine melanoma cells, α-MSH stimulated, Triton X-100 lysate
T1 sequence (P11344 19-533): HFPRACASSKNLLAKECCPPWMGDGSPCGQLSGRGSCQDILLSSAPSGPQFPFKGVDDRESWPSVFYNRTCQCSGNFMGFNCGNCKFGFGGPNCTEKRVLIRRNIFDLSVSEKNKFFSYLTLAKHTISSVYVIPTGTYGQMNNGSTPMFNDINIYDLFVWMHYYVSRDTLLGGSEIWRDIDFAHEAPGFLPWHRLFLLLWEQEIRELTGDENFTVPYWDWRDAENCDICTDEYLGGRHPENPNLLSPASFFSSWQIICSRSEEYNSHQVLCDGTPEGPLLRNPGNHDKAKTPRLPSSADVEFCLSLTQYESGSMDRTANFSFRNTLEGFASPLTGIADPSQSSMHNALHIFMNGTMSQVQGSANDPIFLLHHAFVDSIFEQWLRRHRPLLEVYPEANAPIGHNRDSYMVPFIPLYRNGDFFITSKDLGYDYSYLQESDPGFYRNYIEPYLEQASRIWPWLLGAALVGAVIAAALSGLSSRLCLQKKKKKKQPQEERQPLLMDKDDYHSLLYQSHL
Description: 50,000 cells were placed in each well of a 24-well plate (in F10-Ham medium, 1% FBS). After 24 h of culture, the tested compounds were added in fresh medium (DMEM, 1% FBS), with an additional 5 µM of α-melanocorticotropic hormone (α-MSH) in the medium to induce melanogenesis. Three wells on the plate constituted a control sample without the melanogenesis inducer (α-MSH) and without the tested compounds. After 24 hours of incubation under these conditions, the medium was removed and the cells were washed twice with PBS. 100 µL of lysis buffer composed of 90 µL of 50 mM potassium phosphate buffer, 5 µL of 0.1 mM phenylmethylsulfonyl fluoride and 5 µL of 1% Triton X-100 were added to the wells. The plates were placed at -80 °C for 30 minutes. Cell lysates were then centrifuged for 30 min (4 °C, 12,000 rpm), and then 80 µL of the supernatant was transferred to 96-well plates. […] After a 30-minute incubation, the absorbance was measured at 475 nm using a microplate reader. The percentage of inhibition of tyrosinase activity was calculated using the formula: [(AC -AT)/AC] × 100, where AC - is the absorbance of the negative control (from wells in which cells were cultured without the tested compounds), AT - is the absorbance of the sample from wells in which cells were cultured in the presence of the test compound.

[3] = 2% A-111 in the PEG400+PEG800 base, approx. 10 mg/cm^2, 24 h

SMILES: O=C(/C=C/c1ccc(Cl)cc1)NCCCCCO [Compound A-111, (2E)-3-(4-chlorophenyl)-N-(5-hydroxypentyl)prop-2-enamide]
- accumulation in the epidermis [1, 3]: no accumulation of compound A-111 in the epidermis
- permeation through the epidermis [1, 3]: crosses the epidermal barrier and has the potential to penetrate the dermis
- permeation through the epidermis ([1]; 2% PEG400 solution, 15 µL, 24 h): crosses the epidermal barrier and has the potential to penetrate the dermis
- permeation through the epidermis ([1]; 25 µL of the cosmetic formulation (0.74% A-111), 24 h): crosses the epidermal barrier and has the potential to penetrate the dermis
- inhibition of tyrosinase activity released from B16-F10 cells [2]: inhibit the activity of tyrosinase released from B16-F10 cells
